Key:
[1] = tested on: C57BL/6 mice; experiment: DSS colitis after early-life manipulation of GAPs; type: in vivo; settings: 3% DSS DOL30-38
Experimental: Treatments to alter GAPs: Acute induction or inhibition of GAPs was performed as previously described. Mice were given 500 μg/kg tyrphostin AG1478 i.p. to inhibit of EGFR activation, 10 mg/kg U0126 i.p. to inhibit MAPK/ERK (MEK1/MEK2) activation, 150 μg/kg carbamylcholine (acetycholine analogue) i.p., 100 mg/kg tropicamide (mAChR4 selective antagonist) i.p., 1 μg recombinant murine EGF (Shenandoah) in 20 μl PBS intracolonic, 10 μg LPS intraluminally, or 100 μl stomach contents from a DOL10 mice intraluminally, or 100 μl heat killed cecal contents from SPF housed adult mice intraluminally. Reagents from Sigma Aldrich, St. Louis, Mo. unless otherwise noted.
Adoptive T cell Transfer: 10^5 splenic CD4^+ T cells from CD45.1 CBir1 TCR transgenic mice, CD45.1+ DP1 TCR transgenic mice, or CD45.1+ OTII TCR transgenic mouse were enriched by magnetic particles (Stemcell Technology, #19752 Vancouver, British Columbia, Canada) and injected i.v. into mice. In some experiments cells were labeled with CFSE prior to injection, and MLNs of recipient mice were analyzed three days posts transfer. Mice were analyzed seven days posts transfer to evaluate the presence of the transferred population in the LP. In some experiments, in FIG. 34, FIG. 37, and FIG. 39, cells were transferred on DOL 16, and analyzed on DOL 30 or after 8 days of DSS treatment on DOL 38.
DSS colitis: Mice were given DSS (36,000-50,000 MW, Reagent grade, MP Biomedicals) in drinking water ad libitum for eight days. Math1^fl/fl ERT2^ViCre mice and litter mates were given 1.5% DSS due to their increased susceptibility to disease. Weight was measured daily. On the final day, colons were measured for length to assess shortening, and were fixed in buffered formalin and embedded in paraffin for sectioning. H/E sections were scored for disease as before. In some experiments, colon LP was isolated on the final day of DSS treatment to analyze endogenous T cell and transferred CBir1 T cell populations.

[2] = tested on: goblet cell associated antigen passages (GAPs); experiment: Enumeration of goblet cell associated antigen passages (GAPs) in SI and colon by in vivo two-photon imaging and fixed sections; design: species or system mice
Experimental: Intravital two-photon (2P) microscopy: Mice were anesthetized using nebulized isofluorane in 95% O2/5% CO2. Intravital preparation of the intestine was performed as previously described. To detect GAPs, lysine fixable fluorescently-labeled dextran 10,000 MW (10 mg/mL) and diamidino-2-phenylindole (DAPI; 10 mg/mL) were injected intraluminally 20 minutes prior to imaging, and imaging was performed for up to one hour. To detect paracellular leak fluorescently labeled dextran 3,000 MW (10 mg/mL) and DAPI (10 mg/mL) were injected intraluminally 20 minutes prior to imaging. To detect the extension of trans-epithelial dendrites by APCs, CD11c^YFP or CX3CR1^GFP were imaged as above using 10,000 MW fluorescent dextran to outline the epithelial surface. Tissues were excited using a Ti:sapphire laser tuned to 890 nm (Chameleon X R, Coherent). Time-lapse imaging was performed with a custom-built 2P microscope running ImageWarp acquisition software (A&B Software, New London, Conn.). Epithelial integrity was assessed by dextran and DAPI staining as described. Following imaging, tissues were placed in 10% formalin buffered phosphate solution (Fisher Scientific) to fix dextrans in place to confirm 2P findings and for further analysis by immunofluorescence microscopy.
In some experiments mice were treated with 150 μg/kg carbachol chloride i.p. 10 minutes before dextran, 100 mg/kg tropicamide (mAChR4 selective antagonist) i.p. 20 minutes before dextran, 500 μg/kg tyrphostin AG1478 (inhibitor of EGFR phosphorylation) i.p. 20 minutes before dextran, 10 mg/kg U-0126 (inhibitor of p42/p44 MAPK phosphorylation) i.p. 20 minutes before dextran, 1-1000 ng EGF (Shenandoah Biotechnologies) injected intraluminally 20 minutes before dextran, 10 μg LPS injected intraluminally 20 minutes before dextran, or 100 μl stomach contents from a DOL 10 mice, or 100 μl heat killed cecal contents from SPF housed adult mice injected intraluminally 20 minutes before dextran was administered. All reagents from Sigma Aldrich, St. Louis, Mo. unless otherwise noted.
Enumeration of GAPs: GAPs were identified as dextran-filled columns measuring approximately 20 μm (height)×5 μm (diameter) traversing the epithelium and containing a nucleus. GAPs were enumerated in the jejunum or mid-transverse colon using Z-stack images of a volume of 225 μm(x) by 250 μm(y) by 50 μm(z) acquired during in vivo 2P imaging as described above. SI GAPs were enumerated as GAPs per villus. When present, colonic GAPs were found on both the surface epithelium and within the crypts, but were enumerated as GAPs per crypt due to difficulty in distinguishing dextran filled GAPs from luminal dextran during in vivo imaging. De-identified and coded video clips were evaluated by a blinded investigator to enumerate GAPS in early life. The number of GAPs per villus and GAPs per crypt seen by 2P imaging were confirmed by immunofluorescence microscopy of tissues that were fixed following 2P imaging. To quantify GAPs per GC, lysine fixable 10,000 MW fluorescent dextran was injected into the lumen and intestines harvested 25 min later. Tissues were fixed with 10% formalin buffered saline for 45 min, sectioned, and stained with antibodies directed against cyt18. GCs were identified cyt18+ epithelial cells with GC morphology and GAPs as dextran containing epithelial cells defined as above.
Intravital two-photon (2P) microscopy: Mice were anesthetized using nebulized isofluorane in 95% O2/5% CO2. Intravital preparation of the intestine was performed as previously described. To detect GAPs, tetramethylrodamine labeled dextran 10,000 MW (10 mg/mL) or fluorescein labeled dextran 10,000 MW (10 mg/mL) and diamidino-2-phenylindole (DAPI; 10 mg/mL) were injected intraluminally 20 minutes prior to imaging and imaging was performed for up to one hour. Tissues were excited using a Ti:sapphire laser tuned to 890 nm (Chameleon XR, Coherent). […]

[3] = EGF on DOL10-21 or EGFR inhibition on DOL 24 and 26
[4] = EGFR inhibitors on DOL14 and 16 (post-neonatal phase)

Row | Compound | Foxp3 expression of transferred CBir1 T cells after DSS [1, 3] | disease severity in DSS colitis (histology, colon length) [1, 3] | expansion of CBir1 T cells in colon LP after DSS [1, 3] | inflammatory cytokines of transferred CBir1 T cells after DSS [1, 3] | weight loss in DSS colitis [1, 3] | colonic GAP formation / dextran uptake by colonic epithelial cells ([2]; DOL 14 mice (post-neonatal phase), wildtype) | colonic GAP formation ([2]; DOL 18 mice (post-neonatal phase), agent given luminally) | luminal EGF concentration below which colonic and SI GCs formed GAPs (a concentration that inhibits GAPs on short term exposure) ([2]; DOL ~10 (colon) and DOL ~18 (SI)) [µg/mL] | Foxp3 and inflammatory cytokine expression of CBir1 T cells after DSS [1, 4] | expansion of CBir1 T cells in colon LP after DSS [1, 4] | GAP formation in SI and colon ([2]; DOL 8 mice (neonatal phase)) | SI GAP formation ([2]; DOL 18 mice) | colonic GAP formation ([2]; DOL 28, post weaning) | GAP formation in the SI and colon ([2]; all phases of early life (DOL8, 18, 28))
1 | EGF: recombinant murine EGF (Shenandoah); EGFR ligand, given luminally or intracolonically | significantly reduced Foxp3 expression | developed significantly worse disease | significant expansion of CBir1 T cells in colon LP | significantly increased inflammatory cytokines | lost significantly more weight | inhibited | inhibited GAPs | < 1000 | – | – | – | – | – | –
2 | COc1cc2ncnc(Nc3cccc(Cl)c3)c2cc1OC [EGFRi, tyrphostin AG1478] | significantly reduced Foxp3 expression | developed significantly worse disease | significant expansion of CBir1 T cells in colon LP | significantly increased inflammatory cytokines | lost significantly more weight | – | – | – | continued expressing Foxp3 but not inflammatory cytokines | did not expand further in the colon LP | induced colonic and SI GAPs | induced | induced | allowed GAP formation in the SI and colon during all phases of early life

— patent US11241480B2, “Methods for modulation of dietary and microbial exposure with compositions comprising an EGFR ligand” (Washington University, priority 2017, dated 2022)
